Measured values: patent publication US20160237450A1, “METHOD FOR ENHANCING DROUGHT TOLERANCE IN PLANTS” (Plant Response Biotech S.L., priority 2015, published 2016)

Tests used:
[1] = test system: Arabidopsis thaliana plants (Col-0); assay: Drought fitness of wild type Arabidopsis sprayed with TMAO di-hydrate; type: in vivo; details: Col-0 sprayed 1 g/L after first wilting cycle, scale 0 dead to 4 healthy
Method: Transgenic FMO3X and FMO8X genotypes and wild type Col-0 seeds of Arabidopsis thaliana were sown, grown and treated as described above. For the control group of both wild-type and transgenic plants, six week old plants were irrigated with 40 ml of water twice in the week, while “drought” treated plants of both wild-type and transgenic plants were not irrigated until all the plants were wilted.
After the first cycle of wilting wild type plants were sprayed with 1 g/L TMAO di-hydrate to determine if the wilted wild type plants could recover and perform as well as the transgenic plants in the following cycles of wilting. Fitness values were assigned using the following criteria: 0: Dead plant; 1: Critically damaged plant symptoms; 2: Moderate damaged plant symptoms; 3: Slightly damaged plant symptoms; and 4: Healthy plant.

[2] = test system: broccoli plants ('Parthenon'); assay: Broccoli inflorescence production under limited water; type: in vivo; details: 30% water; for % Control (inflorescence weight): versus untreated 30% water
Text: TMAO di-hydrate applied exogenously which increases the endogenous content of TMAO as if the plants were overexpressing an FMO protein at least 4 times increases plant production in broccoli under limited water irrigation. ‘Parthenon’ broccoli seeds were sown, grown and treated as described above. Spray and irrigation treatments with 1 g/L TMAO di-hydrate increased plant production, as measured by the average weight of the crown plus stems in grams.

corn plants ('FAO700') [3] = assay: Corn number of green leaves under limited water; type: in vivo; details: 30% water
Method: (§1) In order to determine the drought or drought stress tolerance after seed treatments with TMAO di-hydrate and germination in the presence of TMAO di-hydrate, barley “Hispanic” seeds, corn “FAO700” seeds, and “Sambro” sunflower seeds were surface sterilized for 3 minutes in ethanol 70%, then rinsed twice and finally included in a pre-treatment solution of 1 g/L TMAO di-hydrate solution (or just water) under shaking for 3 hours at a dose of 1 litre per Kg of seeds. Then, the seeds were sown in randomized plots of 10 sqm in a surface of 2.000 sqm. Chlorophyll content was measured 1 month before harvest. In corn irrigation was applied in half of the plots while the other half only received an initial establishment watering. The barley plots received 200 l of rain per m^2 through the growing season. Some of the plots received a second spray treatment with 1 g/liter of TMAO. […] At least 3 independent plants were treated per experiment.
TMAO di-hydrate applied exogenously which increases the endogenous content of TMAO as if the plants were overexpressing an FMO protein at least 4 times increases plant production in corn under limited water irrigation. Plants were irrigated with 30% of the water they normally require. ‘FAO700’ corn seeds were sown, grown and treated as described. Spray treatments with 1 g/L TMAO increased plant number of green leaves.

corn plants ('FAO700') [4] = assay: Corn chlorophyll content under limited water; type: in vivo; details: 30% water; 1 g/L spray; after three months
Method: as §1
TMAO di-hydrate applied exogenously increases plant production in corn which increases the endogenous content of TMAO as if the plants were overexpressing an FMO protein at least 4 times under limited water irrigation. ‘FAO700” corn seeds were sown, grown and treated as described above. […] After this time, the absorbance of the suspension (OD663) was determined as an indicator of chlorophyll concentration.

[5] = test system: broccoli plants (Parthenon); assay: Broccoli inflorescence fresh weight with constant TMAO irrigation; type: in vivo; details: 100% water; constant irrigation with 1 g/L
Text: TMAO di-hydrate applied exogenously which increases the endogenous content of TMAO as if the plants were overexpressing an FMO protein at least 4 times increases plant production in broccoli. Parthenon broccoli seeds were sown, grown and treated as described above. Constant irrigation with 1 g/L TMAO di-hydrate increased plant inflorescence production.

[6] = TMAO accumulation in pepper leaves after spray (NMR); details: 1 g/l spray
Method: TMAO content in plants was determined by harvesting three leaves per treatment and freezing them in liquid nitrogen before the Nuclear Magnetic Resonance spectroscopy (NMR) determination. At least three independent plants were treated per experiment. TMAO content in plant extracts was quantified by NMR spectrometry using a Bruker Advance DRX 500 MHz spectrometer equipped with a 5 mm inverse triple resonance probe head. A known concentration of [3-(trimethylsilyl) propionic-2,2,3,3-d4 acid sod. salt, (TSP-d4)] was used as internal reference. All experiments were conducted at 298K and the data was acquired and processed using the same parameters. Spectra processing was performed on PC station using Topspin 2.0 software (Bruker).
‘Murano’ pepper seeds and ‘Bomi’ barley seeds were sown and grown as described above. Control plants (six weeks old) were sprayed with water and pepper treated plants were sprayed with 1 g/l of TMAO di-hydrate while barley plants were sprayed with 1 g/l of TMAO di-hydrate formulated with 0.1% of C8-C10 Alkylpolysaccharide. Leaves were harvested and TMAO was determined by NMR. The percentage of TMAO increase compared to untreated controls was determined for each time point.

C[N+](C)(C)[O-].O.O [TMAO di-hydrate, trimethylamine N-oxide di-hydrate]
Mean Fitness Value ± S.E. [1]: 1.83 ± 0.21 | AVERAGE WEIGHT (grams/inflorescence) ([2]; 1 g/L irrigation): 85.2 ± 4.6 grams/inflorescence | % Control (inflorescence weight) ([2]; 1 g/L irrigation): 106% | AVERAGE WEIGHT (grams/inflorescence) ([2]; 1 g/L spray): 87.3 ± 6.7 grams/inflorescence | % Control (inflorescence weight) ([2]; 1 g/L spray): 108% | increase in biomass production shown in green leaf production over untreated plants with 30% irrigation (corn plants ('FAO700') [3]; 1 g/L (rows 3 and 4: spray, seed)): 47% | AVERAGE NUMBER OF GREEN LEAVES (corn plants ('FAO700') [3]; 1 g/L seed treatment): 8.50 ± 0.41 | AVERAGE NUMBER OF GREEN LEAVES (corn plants ('FAO700') [3]; 1 g/L spray): 8.50 ± 0.25 | OD663 ABSORVANCE (CHLOROPHYLL a) (corn plants ('FAO700') [4]): 0.7278 ± 0.076 | AVERAGE FRESH WEIGHT (GRAMS) PER INFLORESCENCE [5]: 220.2 ± 16.6 GRAMS | increase of broccoli inflorescence fresh weight [5]: 70% | TMAO % Control ([6]; 1 day post spray): 529% | TMAO (μM) in leaves ([6]; 1 day post spray): 1755.2 µM | TMAO % Control ([6]; 10 days post spray): 373% | TMAO (μM) in leaves ([6]; 10 days post spray): 1237.6 µM | TMAO % Control ([6]; 20 days post spray): 286% | TMAO (μM) in leaves ([6]; 20 days post spray): 948.9 µM | TMAO % Control ([6]; 30 days post spray): 135% | TMAO (μM) in leaves ([6]; 30 days post spray): 449.2 µM | TMAO % Control ([6]; 40 days post spray): 213% | TMAO (μM) in leaves ([6]; 40 days post spray): 709.4 µM
